Experimental data published in ChEMBL document CHEMBL6096654, “Allosteric inhibition of PTP1B by bromocatechol-chalcone derivatives” (Eur J Med Chem, 2025).
pIC50: −log10 of the molar value. The source made the active and inactive calls. The rule behind the calls is not given here.

Tests used:
[1] = Toxicity in BKD db/db mouse assessed as effect on food intake at 40 to 80 mg/kg/day, po qd for 8 weeks; format: organism-based; conditions: in vivo, 1344 h, dose 40-80 mg/kg/day
[2] = Toxicity in BKD db/db mouse assessed as effect on kidney weight at 40 to 80 mg/kg/day, po qd for 8 weeks; format: organism-based; conditions: in vivo, 1344 h, dose 40-80 mg/kg/day
[3] = test system: HepG2; experiment: Inhibition of insulin-resistance in insulin-resistant human HepG2 cells assessed as increase in AKT phosphorylation pretreated for 24 hrs followed by compound washout and further addition of insulin measured after 20 mins by Western blot analysis; format: functional, cell-based; conditions: dose 0.625-2.5 µM
[4] = test system: Mus musculus; experiment: Hypoglycemic activity in BKD db/db mouse assessed as increase in AKT phosphorylation in epididymal white adipose tissue at 40 to 80 mg/kg/day, po for 8 weeks by Western blot analysis; format: functional, organism-based; conditions: dose 40-80 mg/kg/day
[5] = test system: Mus musculus; experiment: Hypoglycemic activity in BKD db/db mouse assessed as increase in insulin receptor phosphorylation in skeletal muscle at 40 to 80 mg/kg/day, po for 8 weeks by Western blot analysis; format: functional, organism-based; conditions: dose 40-80 mg/kg/day
[6] = Toxicity in BKD db/db mouse assessed as effect on body weight at 40 to 80 mg/kg/day, po qd for 8 weeks; format: organism-based; conditions: in vivo, 1344 h, dose 40-80 mg/kg/day
[7] = test system: 3T3-L1; experiment: Inhibition of insulin-resistance in insulin-resistant mouse 3T3-L1 cells assessed as increase in insulin receptor phosphorylation pretreated for 24 hrs followed by compound washout and further addition of insulin measured after 20 mins by Western blot analysis; format: functional, cell-based; conditions: dose 0.625-2.5 µM
[8] = test system: HepG2; experiment: Induction of glucose uptake in human HepG2 cells cultured in low glucose medium containing compound for 24 hrs; format: functional, cell-based; conditions: dose 0.625-2.5 µmol/L
[9] = test system: Mus musculus; experiment: Hypoglycemic activity in BKD db/db mouse assessed as regular arrangement of liver cells at 40 to 80 mg/kg/day, po for 8 weeks by H and E staining based analysis; format: functional, organism-based; conditions: dose 40-80 mg/kg/day
[10] = test system: Mus musculus; experiment: Hypoglycemic activity in BKD db/db mouse assessed as decrease in serum insulin level at 40 to 80 mg/kg/day, po qd for 7 weeks; format: functional, organism-based; conditions: dose 40-80 mg/kg/day
[11] = Acute toxicity in Kunming mouse assessed as change in cell morphology of heart at 2000 mg/kg, po measured for 14 days by H and E staining based analysis; format: organism-based; conditions: in vivo, 336 h, time 14 day
[12] = test system: Hepatocyte; experiment: Inhibition of insulin-resistance in insulin-resistant C57BL/J mouse […] primary hepatocytes assessed as increase in insulin receptor phosphorylation pretreated for 24 hrs followed by compound washout and further addition of insulin measured after 20 mins by Western blot analysis; format: functional, cell-based; conditions: dose 0.625-2.5 µM
[13] = test system: Hepatocyte; experiment: Inhibition of insulin-resistance in insulin-resistant C57BL/J mouse […] primary hepatocytes assessed as increase in AKT phosphorylation pretreated for 24 hrs followed by compound washout and further addition of insulin measured after 20 mins by Western blot analysis; format: functional, cell-based; conditions: dose 0.625-2.5 µM
[14] = test system: Mus musculus; experiment: Hypoglycemic activity in BKD db/db mouse assessed as decrease in blood glucose level at 40 to 80 mg/kg/day, po for 7 weeks followed by insulin injection by […] method; format: functional, organism-based; conditions: dose 40-80 mg/kg/day
[15] = test system: Mus musculus; experiment: Hypoglycemic activity in BKD db/db mouse assessed as increase in insulin receptor phosphorylation in liver at 40 to 80 mg/kg/day, po for 8 weeks by Western blot analysis; format: functional, organism-based; conditions: dose 40-80 mg/kg/day
[16] = test system: Mus musculus; experiment: Hypoglycemic activity in BKD db/db mouse assessed as reduction in lipid droplet accumulation in liver at 40 to 80 mg/kg/day, po for 8 weeks by H and E staining based analysis; format: functional, organism-based; conditions: dose 40-80 mg/kg/day
[17] = test system: C2C12; experiment: Induction of glucose uptake in mouse C2C12 cells cultured in low glucose medium containing compound for 24 hrs; format: functional, cell-based; conditions: dose 0.625-2.5 µmol/L
[18] = target: T1, Tyrosine-protein phosphatase non-receptor type 1 (Homo sapiens) (UniProt P18031); experiment: Induction of thermal stabilization of PTP1B in human HepG2 cells at 2.5 u incubated for 6 hrs followed by heat exposure at 51 to 65 degreeC for 4 mins by CETSA; format: cell-based
T1 sequence (whole entry): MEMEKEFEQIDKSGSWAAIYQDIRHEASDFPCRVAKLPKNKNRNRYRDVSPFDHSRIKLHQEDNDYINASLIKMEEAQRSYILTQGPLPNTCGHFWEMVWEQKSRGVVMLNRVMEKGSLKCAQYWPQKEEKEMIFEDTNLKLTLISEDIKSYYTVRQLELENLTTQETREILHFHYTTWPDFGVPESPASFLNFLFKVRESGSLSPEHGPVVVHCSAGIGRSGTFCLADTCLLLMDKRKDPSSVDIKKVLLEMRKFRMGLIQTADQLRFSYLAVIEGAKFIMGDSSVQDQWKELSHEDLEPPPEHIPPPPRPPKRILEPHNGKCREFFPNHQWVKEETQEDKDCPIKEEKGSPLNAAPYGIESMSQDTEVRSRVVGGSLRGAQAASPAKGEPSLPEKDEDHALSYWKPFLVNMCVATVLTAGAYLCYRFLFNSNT

[19] = test system: Mus musculus; experiment: Hypoglycemic activity in BKD db/db mouse assessed as increase in AKT phosphorylation in liver at 40 to 80 mg/kg/day, po for 8 weeks by Western blot analysis; format: functional, organism-based; conditions: dose 40-80 mg/kg/day
[20] = test system: Mus musculus; experiment: Hypoglycemic activity in BKD db/db mouse assessed as increase in AKT phosphorylation in skeletal muscle at 40 to 80 mg/kg/day, po for 8 weeks by Western blot analysis; format: functional, organism-based; conditions: dose 40-80 mg/kg/day
[21] = Acute toxicity in Kunming mouse assessed as change in cell morphology of spleen at 2000 mg/kg, po measured for 14 days by H and E staining based analysis; format: organism-based; conditions: in vivo, 336 h, time 14 day
[22] = target: T2, Tyrosine-protein phosphatase non-receptor type 1 (Homo sapiens, UniProt P18031); experiment: Allosteric inhibition of PTP1B (unknown origin) using pNPP as substrate incubated for 30 mins by spectrophotometry
T2 sequence (P18031 whole entry): T1 sequence (whole entry)

[23] = test system: C2C12; experiment: Inhibition of insulin-resistance in insulin-resistant mouse C2C12 cells assessed as increase in AKT phosphorylation pretreated for 24 hrs followed by compound washout and further addition of insulin measured after 20 mins by Western blot analysis; format: functional, cell-based; conditions: dose 0.625-2.5 µM
[24] = test system: 3T3-L1; experiment: Induction of glucose uptake in mouse 3T3-L1 cells cultured in low glucose medium containing compound for 24 hrs; format: functional, cell-based; conditions: dose 0.625-2.5 µmol/L
[25] = Toxicity in BKD db/db mouse assessed as effect on liver weight at 40 to 80 mg/kg/day, po qd for 8 weeks; format: organism-based; conditions: in vivo, 1344 h, dose 40-80 mg/kg/day
[26] = test system: 3T3-L1; experiment: Inhibition of insulin-resistance in insulin-resistant mouse 3T3-L1 cells assessed as increase in AKT phosphorylation pretreated for 24 hrs followed by compound washout and further addition of insulin measured after 20 mins by Western blot analysis; format: functional, cell-based; conditions: dose 0.625-2.5 µM
[27] = Acute toxicity in Kunming mouse assessed as toxic effects at 2000 mg/kg, po measured for 14 days; format: organism-based; conditions: in vivo, 336 h, time 14 day
[28] = Acute toxicity in Kunming mouse assessed as behavioural changes at 2000 mg/kg, po measured for 14 days; format: organism-based; conditions: in vivo, 336 h, time 14 day
[29] = test system: C2C12; experiment: Inhibition of insulin-resistance in insulin-resistant mouse C2C12 cells assessed as increase in insulin receptor phosphorylation pretreated for 24 hrs followed by compound washout and further addition of insulin measured after 20 mins by Western blot analysis; format: functional, cell-based; conditions: dose 0.625-2.5 µM
[30] = Acute toxicity in Kunming mouse assessed as animal mortality at 2000 mg/kg, po measured for 14 days; format: organism-based; conditions: in vivo, 336 h, time 14 day
[31] = Toxicity in BKD db/db mouse assessed as effect on epididymal white adipose tissue weight at 40 to 80 mg/kg/day, po qd for 8 weeks; format: organism-based; conditions: in vivo, 1344 h, dose 40-80 mg/kg/day

## CCOc1ccc(Oc2ccc(C(=O)/C=C/c3cc(O)c(O)c(Br)c3Br)cc2)cc1
[1]
  Activity: Non-toxic
[2]
  Activity: Non-toxic
[3]
  inhibition: Dose-dependent-effect
[4]
  Activity: Active
[5]
  Activity: Active
[6]
  Activity: Non-toxic
[7]
  inhibition: Dose-dependent-effect
[8]
  Activity: Dose-dependent-effect
[9]
  Activity: Active
[10]
  Activity: Active
[11]
  Activity: Non-toxic
[12]
  inhibition: Dose-dependent-effect
[13]
  inhibition: Dose-dependent-effect
[14]
  Activity: Active
[15]
  Activity: Active
[16]
  Activity: Active
[17]
  Activity: Dose-dependent-effect
[18]
  Activity: Active
[19]
  Activity: Active
[20]
  Activity: Active
[21]
  Activity: Non-toxic
[22]
  pIC50: 5.97
[23]
  inhibition: Dose-dependent-effect
[24]
  Activity: Dose-dependent-effect
[25]
  Activity: Non-toxic
[26]
  inhibition: Dose-dependent-effect
[27]
  Activity: Non-toxic
[28]
  Activity: Non-toxic
[29]
  inhibition: Dose-dependent-effect
[30]
  Activity: Non-toxic
[31]
  Activity: Non-toxic
